Experimental data taken from the NIST ThermoML archive (doi:10.1016/j.jct.2016.01.017).
Numbers after ± are expanded uncertainties.

Assay: activity coefficient (dimensionless); of the first substance listed, at infinite dilution; xn = mol fraction of the nth substance listed
Settings: 100 kPa, Liquid, Chromatography, x1 = 0

Compound | activity coefficient (308.15 K) | activity coefficient (318.15 K) | activity coefficient (328.15 K) | activity coefficient (338.15 K) | activity coefficient (348.15 K) | activity coefficient (358.15 K) | activity coefficient (368.15 K)
CC(C)c1ccccc1 [isopropylbenzene] + CCCC[n+]1ccc(C#N)cc1.O=S(=O)([N-]S(=O)(=O)C(F)(F)F)C(F)(F)F | 4.04 ± 0.35 | 4.13 ± 0.36 | 4.22 ± 0.36 | 4.31 ± 0.37 | 4.39 ± 0.38 | 4.47 ± 0.39 | 4.56 ± 0.39
CO [methanol] + CCCC[n+]1ccc(C#N)cc1.O=S(=O)([N-]S(=O)(=O)C(F)(F)F)C(F)(F)F | 1.33 ± 0.11 | 1.27 ± 0.11 | 1.21 ± 0.1 | 1.17 ± 0.1 | 1.12 ± 0.09 | 1.08 ± 0.09 | 1.05 ± 0.09
CCCC(=O)OC [methyl butanoate] + CCCC[n+]1ccc(C#N)cc1.O=S(=O)([N-]S(=O)(=O)C(F)(F)F)C(F)(F)F | 1.15 ± 0.1 | 1.22 ± 0.1 | 1.28 ± 0.11 | 1.35 ± 0.11 | 1.42 ± 0.12 | 1.48 ± 0.13 | 1.55 ± 0.13
COC(C)=O [methyl ethanoate] + CCCC[n+]1ccc(C#N)cc1.O=S(=O)([N-]S(=O)(=O)C(F)(F)F)C(F)(F)F | 0.607 ± 0.053 | 0.646 ± 0.056 | 0.685 ± 0.059 | 0.724 ± 0.061 | 0.762 ± 0.064 | 0.8 ± 0.067 | 0.839 ± 0.07
CCC(=O)OC [methyl propanoate] + CCCC[n+]1ccc(C#N)cc1.O=S(=O)([N-]S(=O)(=O)C(F)(F)F)C(F)(F)F | 0.8 ± 0.067 | 0.855 ± 0.071 | 0.905 ± 0.075 | 0.956 ± 0.079 | 1.01 ± 0.08 | 1.06 ± 0.09 | 1.11 ± 0.09
CC1CCCCC1 [methylcyclohexane] + CCCC[n+]1ccc(C#N)cc1.O=S(=O)([N-]S(=O)(=O)C(F)(F)F)C(F)(F)F | 23.4 ± 2 | 21.8 ± 1.9 | 20.4 ± 1.8 | 19.1 ± 1.7 | 18 ± 2 | 17.1 ± 1.5 | 16.2 ± 1.4
CCCCCCCCC [nonane] + CCCC[n+]1ccc(C#N)cc1.O=S(=O)([N-]S(=O)(=O)C(F)(F)F)C(F)(F)F | 92.9 ± 8 | 85.9 ± 7.4 | 79.8 ± 6.9 | 74.1 ± 6.4 | 69.4 ± 6 | 65.3 ± 5.7 | 61.5 ± 5.3
C=CCCCCCC [oct-1-ene] + CCCC[n+]1ccc(C#N)cc1.O=S(=O)([N-]S(=O)(=O)C(F)(F)F)C(F)(F)F | 31.7 ± 2.7 | 30.1 ± 2.6 | 28.6 ± 2.5 | 27.3 ± 2.4 | 26.3 ± 2.3 | 25.3 ± 2.2 | 24.3 ± 2.1
CCCCCCCC [octane] + CCCC[n+]1ccc(C#N)cc1.O=S(=O)([N-]S(=O)(=O)C(F)(F)F)C(F)(F)F | 65 ± 5.6 | 59.9 ± 5.2 | 55.3 ± 4.8 | 51.3 ± 4.4 | 47.9 ± 4.1 | 45 ± 4 | 42.4 ± 3.7
CCCCCO [pentan-1-ol] + CCCC[n+]1ccc(C#N)cc1.O=S(=O)([N-]S(=O)(=O)C(F)(F)F)C(F)(F)F | 3.84 ± 0.33 | 3.58 ± 0.31 | 3.36 ± 0.29 | 3.15 ± 0.27 | 2.97 ± 0.26 | 2.81 ± 0.24 | 2.67 ± 0.23
CCCC(C)=O [pentan-2-one] + CCCC[n+]1ccc(C#N)cc1.O=S(=O)([N-]S(=O)(=O)C(F)(F)F)C(F)(F)F | 0.697 ± 0.06 | 0.739 ± 0.063 | 0.783 ± 0.066 | 0.824 ± 0.069 | 0.868 ± 0.072 | 0.909 ± 0.075 | 0.95 ± 0.078
CCC(=O)CC [pentan-3-one] + CCCC[n+]1ccc(C#N)cc1.O=S(=O)([N-]S(=O)(=O)C(F)(F)F)C(F)(F)F | 0.697 ± 0.06 | 0.746 ± 0.063 | 0.792 ± 0.066 | 0.84 ± 0.07 | 0.889 ± 0.074 | 0.936 ± 0.077 | 0.984 ± 0.081
CCCCC [pentane] + CCCC[n+]1ccc(C#N)cc1.O=S(=O)([N-]S(=O)(=O)C(F)(F)F)C(F)(F)F | 26.7 ± 2.3 | 24.2 ± 2.1 | 22 ± 1.9 | 20.2 ± 1.7 | 18.6 ± 1.6 | 17.2 ± 1.5 | 16 ± 1.4
CCCO [propan-1-ol] + CCCC[n+]1ccc(C#N)cc1.O=S(=O)([N-]S(=O)(=O)C(F)(F)F)C(F)(F)F | 2.38 ± 0.21 | 2.23 ± 0.19 | 2.1 ± 0.18 | 1.98 ± 0.17 | 1.88 ± 0.16 | 1.79 ± 0.15 | 1.7 ± 0.14
